Laboratory results from US20170224667A1, “CANCER CHEMOPREVENTIVE AGENT” (KDL, Inc., priority 2014, published 2017).

Columns and labels:
[1] = test system: lung cancer in patients with idiopathic pulmonary fibrosis; experiment: Lung cancer prevention in idiopathic pulmonary fibrosis patients allocated to pirfenidone or non-pirfenidone group; type: in vivo, human; details: for Accumulated incidence of lung cancer: FIG. 1; for Effect on risk of incidence of lung cancer: logistic regression analysis
From the text: Thus, the present inventors evaluated the cancer chemoprevention effect of pirfenidone in idiopathic pulmonary fibrosis patients who are said to have a high risk factor of carcinogenesis. […] This efficacy was not explained by its effectiveness on idiopathic pulmonary fibrosis, and is therefore a novel activity of pirfenidone.
87 in the pirfenidone group (83 idiopathic pulmonary fibrosis, four nonspecific interstitial pneumonia) and 232 in the non-pirfenidone group (213 idiopathic pulmonary fibrosis, 18 nonspecific interstitial pneumonia, and one patient of desquamative interstitial pneumonia). The patients in the pirfenidone group received pirfenidone for 12-75 months (an average of 27.9±14.7 months). As a result, the incidence of lung cancer in the pirfenidone group was 2, whereas in the non-pirfenidone group it was 49. The duration of observation period in the pirfenidone group was 65.5±42.6 months, whereas in the control group it was 57.1±37.5 months. In addition, among 73 deaths in the non-pirfenidone group, 11 (4.7%) patients died by lung cancer, whereas among 29 deaths in the pirifenidone group, one (1.2%) patient died by lung cancer.
The accumulated incidences of lung cancer in patients with idiopathic pulmonary fibrosis not treated with pirfenidone after 1, 5, and 10 years were 0.9%, 18.3%, and 26.8%, whereas in patients treated with pirfenidone after 1, 5, and 10 years the accumulated incidences of lung cancer were 0%, 2.5%, and 6.4%.
The risk factors of incidence of lung cancer were analyzed using logistic regression analysis. As for the variables, backgrounds such as age, sex, number of packs of cigarettes smoked per day by the number of years the person has smoked (pack year), current smoking, pulmonary emphysema, stage of idiopathic pulmonary fibrosis, lung functions (% vital capacity(VC), and forced expiratory volume in 1 second as percent of forced vital capacity; FEV 1%), respiratory function (carbon monoxide lung diffusing capacity; % DLCO), and arterial oxygen partial pressure (PAO2); home oxygen therapy (use/no use), pirfenidone (use/no use), prednisolone (use/no use), N-acetyl cysteine (use/no use) and so forth were used. […] Then, the factors affecting the incidence of lung cancer were analyzed using multivariate Cox proportion hazard mode. Four variables were found as affecting factors. […] This supports the lung cancer protective efficacy of pirfenidone.

[2] = test system: malignant glioma cells; details: non-patent document 4; cited from earlier work
[3] = test system: fibrosis caused by pancreatic cancer; details: non-patent document 5; cited from earlier work
[4] = test system: acute exacerbation in patients with idiopathic pulmonary fibrosis; details: pre-treatment; non-patent document 6; cited from earlier work

SMILES	Death by cancer (lung cancer), % ([1]; 87 patients in pirfenidone group)	Death by cancer (lung cancer), % ([1]; 87 patients in pirfenidone group, listed as pirifenidone)	Incidence of lung cancer, % ([1]; 87 patients in pirfenidone group, observation 65.5 ± 42.6 months, treatment 12-75 months)	Accumulated incidence of lung cancer ([1]; after 1 year)	Accumulated incidence of lung cancer ([1]; after 5 years)	Accumulated incidence of lung cancer ([1]; after 10 years)	Effect on risk of incidence of lung cancer ([1]; use/no use)	Effect on risk of lung cancer ([1]; multivariate Cox proportion hazard model, in words)	Hazard ratio, risk of lung cancer ([1]; multivariate Cox proportion hazard model, use/no use)	Proliferation of malignant glioma cells [2]	Effect on fibrosis caused by pancreatic cancer [3]	Acute exacerbation caused by lung cancer surgery [4]
Cc1ccc(=O)n(-c2ccccc2)c1 [Pirfenidone, 5-methyl-1-phenyl-2-(1H)-pyridone]	1.1%	1.2%	2.3%	0%	2.5%	6.4%	significantly decrease the risk factors of incidence of lung cancer	only factor decreasing the risk of lung cancer	0.128	inhibited proliferation	inhibitory effects on fibrosis	acute exacerbation was inhibited
CC(=O)N[C@@H](CS)C(=O)O [N-acetyl cysteine]	–	–	–	–	–	–	significantly decrease the risk factors of incidence of lung cancer	–	–	–	–	–
